Assays:
Format in all cases: cell-based
Gamma-secretase [1] = experiment: Modulation of gamma-secretase in human H4 cells assessed as inhibition of in amyloid beta40 production by LPECL assay
Gamma-secretase [2] = experiment: Modulation of gamma-secretase in human H4 cells assessed as increase in amyloid beta38 production by LPECL assay
Gamma-secretase [3] = experiment: Modulation of gamma-secretase in human H4 cells assessed as inhibition of in amyloid beta42 production by LPECL assay
H4 = experiment: Cytotoxicity against human H4 cells by MTS assay
[4] = molecular target: Gamma-secretase (Homo sapiens) (UniProt Q96BI3+Q9NZ42+Q8WW43+P49768+Q92542+P49810); experiment: Modulation of gamma-secretase in human H4 cells assessed as reduction of in amyloid beta42 production at 40 uM by LPECL assay; set-up: scale not given: the % may be the effect or the level left

| SMILES | IC50 (Gamma-secretase [1]) [µM] | EC50 (Gamma-secretase [2]) [µM] | IC50 (Gamma-secretase [3]) [µM] | Activity (H4) [µM] | Activity [4] [%] |
| --- | --- | --- | --- | --- | --- |
| CCCCCCCC/C=C\CCCCCCCC(=O)n1c2ccccc2c2ccc(OCC(=O)O)cc21 | > 40 | 9.2 | 13.1 |  |  |
| CCCCCCCCCCCCCCO/N=C(/c1ccc(Cl)cc1)c1ccc(OC(C)(C)C(=O)O)cc1 | > 80 | > 80 | > 80 |  |  |
| CCCCCCCCCCCCO/N=C(/c1ccc(Cl)cc1)c1ccc(OC(C)(C)C(=O)O)cc1 | > 40 | > 40 | > 40 | 80 |  |
| CC(C)(Oc1ccc(/C(=N\OCCCCCCCCO/N=C(/c2ccc(Cl)cc2)c2ccc(OC(C)(C)C(=O)O)cc2)c2ccc(Cl)cc2)cc1)C(=O)O | 37.3 | 47.6 | 23.7 |  |  |
| CCCCCCCC/C=C/CCCCCCCC(=O)n1c2ccccc2c2ccc(OCC(=O)O)cc21 | > 40 | 9.3 | 13 |  |  |
| CCCCCCCCO/N=C(/c1ccc(Cl)cc1)c1ccc(OC(C)(C)C(=O)O)cc1 | 47.6 | 16.1 | 36.2 | 80 | 60 |
| CCCCCCCCCCCCCCCCO/N=C(/c1ccc(Cl)cc1)c1ccc(OC(C)(C)C(=O)O)cc1 | > 80 | > 80 | > 80 |  |  |
| CCCCCCCCCCCO/N=C(/c1ccc(Cl)cc1)c1ccc(OC(C)(C)C(=O)O)cc1 | > 40 | > 40 | > 40 |  |  |
| CCCCCCCCCO/N=C(/c1ccc(Cl)cc1)c1ccc(OC(C)(C)C(=O)O)cc1 | > 40 | > 40 | > 40 |  |  |
| CCCCCCCCCCCCCCCCCCn1c2ccccc2c2ccc(OCC(=O)O)cc21 | > 80 | 1.4 | 26 |  |  |
| CCCCCCCCCCO/N=C(/c1ccc(Cl)cc1)c1ccc(OC(C)(C)C(=O)O)cc1 | > 80 | > 80 | 36.1 |  | 60 |
| CCCCCCCCCC(=O)n1c2ccccc2c2ccc(OCC(=O)O)cc21 | > 40 | 12.6 | 22.4 |  |  |
| O=C(O)COc1ccc2c3ccccc3n(Cc3cccc(C4(C(F)(F)F)N=N4)c3)c2c1 | > 80 | > 80 | > 80 |  |  |
| CC(C)(Oc1ccc(C(/N=N/c2ccc([N+](=O)[O-])cc2[N+](=O)[O-])c2ccc(Cl)cc2)cc1)C(=O)O (stereo not given) | 37.3 | 47.6 | 17 | 80 |  |
| N#Cc1ccccc1-c1ccc(Cn2c3ccccc3c3ccc(OCC(=O)O)cc32)cc1 | > 80 | > 80 | > 80 |  |  |
| CC(C)(Oc1ccc(/C(=N\OCCCCCCCCCCO/N=C(/c2ccc(Cl)cc2)c2ccc(OC(C)(C)C(=O)O)cc2)c2ccc(Cl)cc2)cc1)C(=O)O | > 40 | > 40 | > 32.6 | 80 |  |
| CN(C)c1ccc(/N=N/c2ccc(S(=O)(=O)n3c4ccccc4c4ccc(OCC(=O)O)cc43)cc2)cc1 | > 80 | 7.6 | 9 |  |  |
| CC(C)(Oc1ccc(/C(=N\OCCCCCCCCCO/N=C(/c2ccc(Cl)cc2)c2ccc(OC(C)(C)C(=O)O)cc2)c2ccc(Cl)cc2)cc1)C(=O)O | > 40 | > 40 | > 40 | 80 |  |
| CN(C)c1cccc2c(S(=O)(=O)n3c4ccccc4c4ccc(OCC(=O)O)cc43)cccc12 | > 40 | > 40 | > 40 | 80 |  |

Source: ChEMBL document CHEMBL1153709, “NSAID-derived gamma-secretase modulators. Part III: Membrane anchoring” (Bioorg Med Chem Lett, 2009)
